Laboratory results published in publication PMC9081329, “Pharmacokinetics, Mass Balance, Excretion, and Tissue Distribution of Plasmalogen Precursor PPI-1011” (Frontiers in Cell and Developmental Biology, 2022).

Assay: Repeat dose tissue distribution study (QWBA, LSC of blood and plasma), 15 daily doses
Assay type: in vivo, Sprague-Dawley rats
Experimental: Three male rats were administered [^14C]PPI-1011 at 100 mg/kg (100 μCi/kg) once daily for 15 days. One rat was sacrificed at each of the following time points after the administration of the day 15 dose: 24, 48, and 96 h. Terminal blood was collected by cardiac puncture directly into tubes with K2EDTA, an aliquot was stored at 4°C until LSC was performed for radioactivity, while the remaining blood was processed to plasma and stored at −20°C until LSC. Following blood collection, the carcasses were frozen in a cold bath with hexanes and dry ice for at least 8 min and then dried and stored at −70°C for at least 12 h. The carcasses were transferred to a −20°C freezer for at least 12 h before embedding.
QWBA was used to determine radioactivity concentrations in the caecum (contents and mucosa), large intestine (contents and mucosa), small intestine (contents and mucosa), stomach (contents and mucosa), brain, choroid plexus, spinal cord, bone, skin, adrenal gland, pineal body, pituitary gland, thyroid gland, liver, kidney (cortex, medulla and whole kidney), urinary bladder (contents and wall), brown fat, white fat, eye (lens, uveal tract and whole eye), epididymis, prostate gland, testis, ovary, uterus, lung, exorbital lachrymal gland, Harderian gland, pancreas, salivary gland, skeletal muscle, myocardium, cardiac blood, bone marrow, lymph node, spleen, and thymus. As well, LSC was used to determine the total radioactivity in the whole blood and plasma.
The whole-body cryosectioning technique described by ([Ullberg, 1977]) was the basis for embedding and cryosectioning the rats assigned to this study. Each frozen carcass was shaved, and then the limbs and tail were removed prior to embedding. Chilled (4°C) 3% CMC (low viscosity) was utilized to provide a firm support of reinforced ice around each rat and for a secure attachment to the microtome stage. Upon thorough freezing of the embedding medium surrounding each rat, the frozen CMC block was removed from the freezing bath and four 3/8 inch holes were drilled into the block. One cryosection quality control standard (CQCS) was prepared with a known amount of radioactivity and at least 1 ml aliquots were added to each of the four drilled holes. CQCS data were utilized to evaluate the overall performance of the QWBA assay.
Each frozen rat was sagittally trimmed (50–100 μm) at −20°C until exposure of a few target tissues employing a Leica Cryomacrocut heavy-duty microtome (Leica Microsystems Inc.,). Disposable stainless steel Feather type H45L knives (Feather Safety Razor Co., Ltd.) were utilized for trimming and sectioning each frozen rat. Several thinner sections (50 μm) were discarded prior to obtaining multiple 50 μm sections at various cryosectioning levels for QWBA analysis. Upon the collection of at least 60 target tissues in multiple cryosectioning levels, the cryosections were kept in the Cryomacrocut cryochamber for a minimum of 18 h for dehydration depending upon the number of cryosections within the cryochamber. After dehydration was complete, the cryosections were transferred to ambient temperature for processing. Mounted whole-body cryosections and a set of 15 standards were sandwiched between a standard phosphor screen and an exposure cassette. All cryosections were exposed to the phosphor screen for 4-days in a cabinet protected with lead prior to scanning using a Typhoon PhosphorImager (Cytiva). MCID™ Analysis software (InterFocus Ltd.) was utilized to generate a calibration curve of the STD nominal concentrations (nCi/g) versus PhosphorImager response (counts/μm^2 minus background) by weighted (1/x) linear regression analysis ([Potchoiba et al., 1995]; [Potchoiba et al., 1998]). The linear regression curve was then utilized to determine the concentration (nCi/g) of total radioactivity in whole-body tissues and blood. Radioactivity concentrations were expressed as μg Eq/g based on the specific activity of the compound in the final dose formulations. […]

[1] = 24 hr post 15 daily oral 100 mg/kg
[2] = 48 hr post 15 daily oral 100 mg/kg

CC/C=C\C/C=C\C/C=C\C/C=C\C/C=C\C/C=C\CCC(=O)O[C@H](CO[14CH2]CCCCCCCCCCCCCCC)COC(=O)CCCCC1CCSS1 (stereo partly shown) [[^14C]PPI-1011]
Mean percentage radioactivity (normalized by tissue) at 96 h relative to the 24-h timepoint (15 daily doses): 75%
Radioactivity in urine within the urinary bladder (15 daily doses): no detection of radioactivity
Time of highest blood concentration (15 daily doses): 24 HPD
Time of highest levels, adrenal gland (15 daily doses): 48 HPD
Time of highest levels, cerebrum (15 daily doses): 96 HPD
Time of highest levels, medulla oblongata (15 daily doses): 96 HPD
Time of highest levels, nasal turbinates (15 daily doses): 48 HPD
Time of highest levels, spinal cord (15 daily doses): 96 HPD
Time of highest peak concentration, bladder wall (15 daily doses): 48 HPD
Time of highest peak concentration, brown adipose (15 daily doses): 24 HPD
Time of highest peak concentration, cecum (15 daily doses): 24 HPD
Time of highest peak concentration, esophagus (15 daily doses): 24 HPD
Time of highest peak concentration, gastric mucosa (15 daily doses): 24 HPD
Time of highest peak concentration, large intestines (15 daily doses): 24 HPD
Time of highest peak concentration, ocular lens (15 daily doses): 96 HPD
Time of highest peak concentration, prostate (15 daily doses): 96 HPD
Time of highest peak concentration, seminal vesicles (15 daily doses): 24 HPD
Time of highest peak concentration, small intestines (15 daily doses): 24 HPD
Time of highest peak concentration, stomach (15 daily doses): 24 HPD
Time of highest peak concentration, subcutaneous adipose (15 daily doses): 48 HPD
Time of highest peak concentration, testis (15 daily doses): 24 HPD
Time of highest peak concentration, uveal tract (15 daily doses): 24 HPD
Time of highest peak concentration, visceral adipose (15 daily doses): 48 HPD
Time of highest peak concentration, vitreous body (15 daily doses): 24 HPD
Time of highest peak concentration, whole eye (15 daily doses): 24 HPD
Blood:plasma concentration ratio (24 HPD, 15 daily doses): 2.31
Blood:plasma concentration ratio (48 HPD, 15 daily doses): 2.86
Blood:plasma concentration ratio (96 HPD, 15 daily doses): 4.23
Radioactivity concentration, Adipose - Brown [1]: 2211 μg equivalents/g
Radioactivity concentration, Adipose - Brown (Vessel Wall) [1]: 1423 μg equivalents/g
Radioactivity concentration, Adipose - Subcutaneous [1]: 1316 μg equivalents/g
Radioactivity concentration, Adipose - Visceral [1]: 1402 μg equivalents/g
Radioactivity concentration, Adrenal Gland [1]: 1830 μg equivalents/g
Radioactivity concentration, Bladder Wall [1]: 102 μg equivalents/g
Radioactivity concentration, Blood - QWBA [1]: 55.0 μg equivalents/g
Radioactivity concentration, Bone Marrow [1]: 160 μg equivalents/g
Radioactivity concentration, Bone Surface [1]: 11.6 μg equivalents/g
Radioactivity concentration, Cecum [1]: 300 μg equivalents/g
Radioactivity concentration, Cerebellum [1]: 57.8 μg equivalents/g
Radioactivity concentration, Cerebrum [1]: 45.7 μg equivalents/g
Radioactivity concentration, Choroid Plexus [1]: 186 μg equivalents/g
Radioactivity concentration, Colliculus [1]: 68.3 μg equivalents/g
Radioactivity concentration, Diaphragm [1]: 204 μg equivalents/g
Radioactivity concentration, Esophagus [1]: 161 μg equivalents/g
Radioactivity concentration, Exorbital Lacrimal Gland [1]: 98.0 μg equivalents/g
Radioactivity concentration, Gastric Mucosa [1]: 415 μg equivalents/g
Radioactivity concentration, Harderian Gland [1]: 113 μg equivalents/g
Radioactivity concentration, Intra-Orbital Lacrimal Gland [1]: 100 μg equivalents/g
Radioactivity concentration, Kidney [1]: 304 μg equivalents/g
Radioactivity concentration, Large Intestines [1]: 255 μg equivalents/g
Radioactivity concentration, Liver [1]: 412 μg equivalents/g
Radioactivity concentration, Lung [1]: 217 μg equivalents/g
Radioactivity concentration, Lymph Node [1]: 347 μg equivalents/g
Radioactivity concentration, Medulla Oblongata [1]: 51.0 μg equivalents/g
Radioactivity concentration, Muscle [1]: 115 μg equivalents/g
Radioactivity concentration, Myocardium [1]: 292 μg equivalents/g
Radioactivity concentration, Nasal Turbinates [1]: 180 μg equivalents/g
Radioactivity concentration, Ocular - Lens [1]: 5.82 μg equivalents/g
Radioactivity concentration, Ocular - Uveal Tract [1]: 105 μg equivalents/g
Radioactivity concentration, Ocular - Vitreous Body [1]: 2.55 μg equivalents/g
Radioactivity concentration, Ocular - Whole Eye [1]: 22.7 μg equivalents/g
Radioactivity concentration, Olfactory Bulb [1]: 47.8 μg equivalents/g
Radioactivity concentration, Pancreas [1]: 355 μg equivalents/g
Radioactivity concentration, Parotid Gland [1]: 296 μg equivalents/g
Radioactivity concentration, Pineal Gland [1]: 230 μg equivalents/g
Radioactivity concentration, Pituitary Gland [1]: 266 μg equivalents/g
Radioactivity concentration, Prostate [1]: 74.6 μg equivalents/g
Radioactivity concentration, Renal Cortex [1]: 323 μg equivalents/g
Radioactivity concentration, Renal Medulla [1]: 238 μg equivalents/g
Radioactivity concentration, Salivary Gland [1]: 308 μg equivalents/g
Radioactivity concentration, Seminal Vesicles [1]: 63.2 μg equivalents/g
Radioactivity concentration, Skin - Non-Pigmented [1]: 161 μg equivalents/g
Radioactivity concentration, Small Intestines [1]: 420 μg equivalents/g
Radioactivity concentration, Spinal Cord [1]: 46.8 μg equivalents/g
Radioactivity concentration, Spleen [1]: 319 μg equivalents/g
Radioactivity concentration, Stomach [1]: 133 μg equivalents/g
Radioactivity concentration, Testis [1]: 70.3 μg equivalents/g
Radioactivity concentration, Thalamus [1]: 45.4 μg equivalents/g
Radioactivity concentration, Thymus [1]: 153 μg equivalents/g
Radioactivity concentration, Thyroid [1]: 373 μg equivalents/g
Radioactivity concentration, Whole Brain [1]: 48.8 μg equivalents/g
Radioactivity concentration, Adipose - Brown [2]: 1917 μg equivalents/g
Radioactivity concentration, Adipose - Brown (Vessel Wall) [2]: 1017 μg equivalents/g
Radioactivity concentration, Adipose - Subcutaneous [2]: 1498 μg equivalents/g
Radioactivity concentration, Adipose - Visceral [2]: 1500 μg equivalents/g
Radioactivity concentration, Adrenal Gland [2]: 2346 μg equivalents/g
Radioactivity concentration, Bladder Wall [2]: 108 μg equivalents/g
Radioactivity concentration, Blood - QWBA [2]: 34.3 μg equivalents/g
Radioactivity concentration, Bone Marrow [2]: 113 μg equivalents/g
Radioactivity concentration, Bone Surface [2]: 7.66 μg equivalents/g
Radioactivity concentration, Cecum [2]: 95.7 μg equivalents/g
Radioactivity concentration, Cerebellum [2]: 54.9 μg equivalents/g
Radioactivity concentration, Cerebrum [2]: 39.9 μg equivalents/g
Radioactivity concentration, Choroid Plexus [2]: 131 μg equivalents/g
